Assay results from PMC11876601 (Molecular Systems Biology, 2025).
Where two headings read alike, the source gives them in different places.

System: AsPC-1 cells
Experiment: Cell proliferation assay, chemodrug + ATR inhibitor (Incucyte confluence, 72 h);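 also: underlying read-out for every value is AsPC-1 confluence after 72 h incubation at 37 °C and 5% CO2, divided by that well's starting confluence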
Details: for EC50: Homo sapiens
Protocol: Cells were seeded at 5000 cells/well into 96-well flat bottom plates (Eppendorf) and allowed to attach overnight. […] Cells were incubated for 72 h at 37 °C and 5% CO2. Cell confluence readouts at 72 h were either normalized to their initial confluence using the Incucyte software (AsPC-1) or used without prior normalization (all others). […] Each experiment was performed in triplicates, the data was plotted as mean ± standard deviation (s.d.).

Nc1ccn([C@@H]2O[C@H](CO)[C@@H](O)C2(F)F)c(=O)n1 [GEM, Gemcitabine]
Raw data (confluence at 72 h/confluence at 0 h) (Experiment (ATRi) Elimusertib, replicate R1, drug dose (titrated) 3000 nM): 1.44 | Raw data (confluence at 72 h/confluence at 0 h) (Experiment (ATRi) Elimusertib, replicate R2, drug dose (titrated) 1 nM): 3.86 | Raw data (confluence at 72 h/confluence at 0 h) (Experiment (ATRi) Elimusertib, replicate R2, drug dose (titrated) 3 nM): 3.95 | Raw data (confluence at 72 h/confluence at 0 h) (Experiment (ATRi) Elimusertib, replicate R2, drug dose (titrated) 10 nM): 3.59 | Raw data (confluence at 72 h/confluence at 0 h) (Experiment (ATRi) Elimusertib, replicate R2, drug dose (titrated) 30 nM): 3.07 | Raw data (confluence at 72 h/confluence at 0 h) (Experiment (ATRi) Elimusertib, replicate R2, drug dose (titrated) 100 nM): 2.33 | Raw data (confluence at 72 h/confluence at 0 h) (Experiment (ATRi) Elimusertib, replicate R3, drug dose (titrated) 1 nM): 3.76 | Raw data (confluence at 72 h/confluence at 0 h) (Experiment (ATRi) Elimusertib, replicate R3, drug dose (titrated) 3 nM): 3.85 | Raw data (confluence at 72 h/confluence at 0 h) (Experiment (ATRi) Elimusertib, replicate R3, drug dose (titrated) 10 nM): 3.75 | Raw data (confluence at 72 h/confluence at 0 h) (Experiment (ATRi) Elimusertib, replicate R3, drug dose (titrated) 30 nM): 3.15 | Raw data (confluence at 72 h/confluence at 0 h) (Experiment (ATRi) Elimusertib, replicate R3, drug dose (titrated) 100 nM): 2.28 | Raw data (confluence at 72 h/confluence at 0 h) (Experiment (ATRi) Gartisertib, replicate R1, drug dose (titrated) 1 nM): 3.28 | Raw data (confluence at 72 h/confluence at 0 h) (Experiment (ATRi) Gartisertib, replicate R1, drug dose (titrated) 3 nM): 3.04 | Raw data (confluence at 72 h/confluence at 0 h) (Experiment (ATRi) Gartisertib, replicate R1, drug dose (titrated) 10 nM): 2.71 | Raw data (confluence at 72 h/confluence at 0 h) (Experiment (ATRi) Gartisertib, replicate R1, drug dose (titrated) 30 nM): 2.57 | Raw data (confluence at 72 h/confluence at 0 h) (Experiment (ATRi) Gartisertib, replicate R1, drug dose (titrated) 100 nM): 2.04 | Raw data (confluence at 72 h/confluence at 0 h) (Experiment (ATRi) Gartisertib, replicate R1, drug dose (titrated) 300 nM): 1.92 | Raw data (confluence at 72 h/confluence at 0 h) (Gartisertib experiment, replicate R2, titrated drug dose 1 nM): 4.01 | Raw data (confluence at 72 h/confluence at 0 h) (Gartisertib experiment, replicate R2, titrated drug dose 3 nM): 4.05 | Raw data (confluence at 72 h/confluence at 0 h) (Gartisertib experiment, replicate R2, titrated drug dose 10 nM): 3.93 | Raw data (confluence at 72 h/confluence at 0 h) (Gartisertib experiment, replicate R2, titrated drug dose 30 nM): 3.32 | Raw data (confluence at 72 h/confluence at 0 h) (Gartisertib experiment, replicate R2, titrated drug dose 100 nM): 2.49 | Raw data (confluence at 72 h/confluence at 0 h) (Gartisertib experiment, replicate R2, titrated drug dose 300 nM): 2.07 | Raw data (confluence at 72 h/confluence at 0 h) (Gartisertib experiment, replicate R2, titrated drug dose 1000 nM): 1.91 | Raw data (confluence at 72 h/confluence at 0 h) (Gartisertib experiment, replicate R2, titrated drug dose 3000 nM): 1.89 | Raw data (confluence at 72 h/confluence at 0 h) (Gartisertib experiment, replicate R3, titrated drug dose 1 nM): 4.16 | Raw data (confluence at 72 h/confluence at 0 h) (Gartisertib experiment, replicate R3, titrated drug dose 3 nM): 3.98 | Raw data (confluence at 72 h/confluence at 0 h) (Gartisertib experiment, replicate R3, titrated drug dose 10 nM): 3.74 | Raw data (confluence at 72 h/confluence at 0 h) (Gartisertib experiment, replicate R3, titrated drug dose 30 nM): 3.24 | Raw data (confluence at 72 h/confluence at 0 h) (Gartisertib experiment, replicate R3, titrated drug dose 100 nM): 2.56 | Raw data (confluence at 72 h/confluence at 0 h) (Gartisertib experiment, replicate R3, titrated drug dose 300 nM): 2.02 | EC50 (ASPC1, 72 h, AsPC1, Experiment GEM (Gemcitabine alone) in the Berzosertib series, single replicates R1-R3): 34.6 nM | EC50 (ASPC1, 72 h, AsPC1, Experiment GEM (Gemcitabine alone) in the Ceralasertib series, single replicates R1-R3): 42.6 nM | EC50 (ASPC1, 72 h, AsPC1, Experiment GEM (Gemcitabine alone) in the Elimusertib series, single replicates R1-R3): 42.4 nM | EC50 (ASPC1, 72 h, AsPC1, Experiment GEM (Gemcitabine alone) in the Gartisertib series, single replicates R1-R3): 34.1 nM | EC50 (ASPC1, 72 h, read-out: EC50 (cell growth), GEM alone, mean of four experiments): 45 nM | EC50 (ASPC1, 72 h, read-out: EC50 mean [nM], AsPC1, Experiment GEM alone in the Berzosertib series, mean of replicates): 40.5 nM | EC50 (ASPC1, 72 h, read-out: EC50 mean [nM], AsPC1, Experiment GEM alone in the Ceralasertib series, mean of replicates): 45.5 nM | EC50 (ASPC1, 72 h, read-out: EC50 mean [nM], AsPC1, Experiment GEM alone in the Elimusertib series, mean of replicates): 44.4 nM | EC50 (ASPC1, 72 h, read-out: EC50 mean [nM], AsPC1, Experiment GEM alone in the Gartisertib series, mean of replicates): 46 nM | EC50 (ASPC1, 72 h, read-out: pEC50, AsPC1 (converted), Experiment GEM (Gemcitabine alone) in the Berzosertib series, single replicates R1-R3): 34.7 nM | EC50 (ASPC1, 72 h, read-out: pEC50, AsPC1 (converted), Experiment GEM (Gemcitabine alone) in the Ceralasertib series, single replicates R1-R3): 42.7 nM | EC50 (ASPC1, 72 h, read-out: pEC50, AsPC1 (converted), Experiment GEM (Gemcitabine alone) in the Elimusertib series, single replicates R1-R3): 42.7 nM | EC50 (ASPC1, 72 h, read-out: pEC50, AsPC1 (converted), Experiment GEM (Gemcitabine alone) in the Gartisertib series, single replicates R1-R3): 33.9 nM | EC50 (ASPC1, read-out: EC50 mean [nM], AsPC1, Experiment GEM alone in the Berzosertib series, mean of replicates): 40.5 nM | EC50 (ASPC1, read-out: EC50 mean [nM], AsPC1, Experiment GEM alone in the Ceralasertib series, mean of replicates): 45.5 nM | EC50 (ASPC1, read-out: EC50 mean [nM], AsPC1, Experiment GEM alone in the Elimusertib series, mean of replicates): 44.4 nM | EC50 (ASPC1, read-out: EC50 mean [nM], AsPC1, Experiment GEM alone in the Gartisertib series, mean of replicates): 46 nM | EC50 (ASPC1, read-out: EC50 mean, GEM alone, Berzosertib experiment): 40.5 nM | EC50 (ASPC1, read-out: EC50 mean, GEM alone, Ceralasertib experiment): 45.5 nM | EC50 (ASPC1, read-out: EC50 mean, GEM alone, Elimusertib experiment): 44.4 nM | EC50 (ASPC1, read-out: EC50 mean, GEM alone, Gartisertib experiment): 46 nM | Raw data (confluence at 72 h/confluence at 0 h) (titrated drug dose 10 nM, replicate R3, experiment (ATRi) Ceralasertib, AsPC-1, 72 h): 3.37 | Raw data (confluence at 72 h/confluence at 0 h) (titrated drug dose 30 nM, replicate R3, experiment (ATRi) Ceralasertib, AsPC-1, 72 h): 2.93 | Raw data (confluence at 72 h/confluence at 0 h) (titrated drug dose 1000 nM, replicate R3, experiment (ATRi) Ceralasertib, AsPC-1, 72 h): 1.56
